Data reported in patent US7612057B2, “Supramolecular complexes as photoactivated DNA cleavage agents” (Virginia Tech Intellectual Properties, Inc., priority 2002, dated 2009).

What was measured:
pUC18 plasmid = test: Photocleavage of pUC18 plasmid DNA assayed by agarose gel electrophoresis; assay type: biochemical
Procedure: FIG. 10A-C. (a) Schematic representations of imaged agarose gel showing the photocleavage of pUC18 plasmid by [{(bpy)2Ru(dpp)}2RhCl2]^5+ in the absence of molecular oxygen. Lane 1 λ molecular weight standard, lanes 2 and 3 plasmid controls, lanes 4 and 6 plasmid incubated at 37° C. (2 h) in the presence of [(bpy)2Ru(dpp)]^2+ and [{(bpy)2Ru(dpp)}2RhCl2]^5+, respectively (1:5metal complex/base pair), lanes 5 and 7 plasmid irradiated at λ≧475 nm for 10 min in the presence of [(bpy)2Ru(dpp)]^2+ and [{(bpY)2Ru(dpp)}2RhCl2]^5+, respectively. (b) Lanes 1 and 2 plasmid controls, lanes 3 and 5 plasmid incubated at 37° C. (3 h) in the presence of [{(bpy)2Ru(bpm)}2RhCl2]^5+ and [{(bpy)2Ru(dpp)}2IrCl2]^5+, respectively, lanes 4 and 6 plasmid irradiated at λ≧475 nm for 10 min in the presence of [{(bpy)2Ru(bpm)}2RhCl2]^5+ and [{(bpy)2Ru(dpp)}2IrCl2]^5+, respectively. (c) Imaged agarose gel showing photocleavage of pBluescript plasmid in the absence of molecular oxygen by [(bpy)2Ru(dpp)RhCl2(dpp)Ru(bpy)2](PF6)5. Lane 1 is the λ molecular weight standard, lane 2 is the control linearized DNA (cut with HindIII) with no metal present, lane 3 is the control circular DNA with no metal present, lane 4 is a 1:5 metal complex/base pair mixture of the plasmid with the metal complex incubated at 37° C. (4 h), and lane 5 is a 1:5 metal complex/base pair mixture of the plasmid with the metal complex photolyzed at 520±5 nm for 4 h. All gels used 0.8% agarose, 90 mM Tris, and 90 mM boric acid buffer (pH=8.2, ionic strength=0.0043 M calculated using the Henderson-Hasselbalch equation).
(§1) A, DNA Photocleavage of pUC18 using [{(bpy)2Os(dpp)}2RhCl2](PF6)5:Lane 1 is the λ molecular weight standard, Lane 2 is a plasmid control, Lane 3 is a 1:5 metal complex/base pair mixture of the plasmid with the metal complex incubated at 37° C. for 20 minutes, Lane 4 is a 1:5 metal complex/base pair mixture of the plasmid with the metal complex photolyzed at >475 nm for 20 minutes.
C, DNA Photocleavage of pUC18 using [{(tpy)RuCl(bpm)}2RhCl2](PF6)3:Lane 1 is the λ molecular weight standard, Lane 2 is a plasmid control, Lane 3 is the plasmid alone photolyzed λ>475 nm for 15 mins, Lane 4 is a 1:5 metal complex/base pair mixture of the plasmid with the metal complex incubated at 37° C. for 15 minutes, Lane 5 is a 1:5 metal complex/base pair mixture of the plasmid with the metal complex photolyzed at >475 nm for 15 minutes.
pUC18 and pBluescript were used to probe pbotocleavage of DNA by gel electrophoresis.^14,26,41,42 pUC18 plasmid is 2686 bp (Bayou Biolabs). Irradiation used a 1000 W xenon arc lamp, a water IR filter, and a 475 nm cut off filter. Solutions were 3.5 μM in metal complex and 6.9 mM in phosphate buffer (pH=7) and allowed for ionic association of the cationic metal complexes with DNA. Dexoygenation was accomplished by bubbling with Ar for 30 min prior to the photolysis of the samples in an airtight cell blanketed with Ar.
The photocleavage of DNA by [{(bpy)2Ru(dpp)}2RhCl2]^5+ but not the monometallic ruthenium synthon illustrates the role of the supramolecular architecture, including Rh, on the desired photoreactivity. The cleavage product migrates slightly slower through the gel than native nicked plasmid, and similar results have been observed by Turro.^14 […]

pBluescript plasmid = test: Photocleavage of pBluescript plasmid DNA assayed by agarose gel electrophoresis; assay type: biochemical
Procedure: FIG. 10A-C. […] Lane 1 λ molecular weight standard, lanes 2 and 3 plasmid controls, lanes 4 and 6 plasmid incubated at 37° C. […] (b) Lanes 1 and 2 plasmid controls, lanes 3 and 5 plasmid incubated at 37° C. […] Lane 1 is the λ molecular weight standard, lane 2 is the control linearized DNA (cut with HindIII) with no metal present, lane 3 is the control circular DNA with no metal present, lane 4 is a 1:5 metal complex/base pair mixture of the plasmid with the metal complex incubated at 37° C. (4 h), and lane 5 is a 1:5 metal complex/base pair mixture of the plasmid with the metal complex photolyzed at 520±5 nm for 4 h. All gels used 0.8% agarose, 90 mM Tris, and 90 mM boric acid buffer (pH=8.2, ionic strength=0.0043 M calculated using the Henderson-Hasselbalch equation).
as §1, with “B,” for “A,”, “pBluescript” for “pUC18”, “[{(tpy)RuCl(dpp)}2RhCl2](PF6)3:Lane” for “[{(bpy)2Os(dpp)}2RhCl2](PF6)5:Lane”
pUC18 and pBluescript were used to probe pbotocleavage of DNA by gel electrophoresis.^14,26,41,42 pUC18 plasmid is 2686 bp (Bayou Biolabs). Irradiation used a 1000 W xenon arc lamp, a water IR filter, and a 475 nm cut off filter. […]

Vero cells = test: Photoinduced inhibition of Vero cell replication; assay type: cell-based
Procedure: Photoinduced inhibition of Vero cell replication by the supramolecular complex [{(bpy)2Ru(dpp)}2RhCl2](PF6)5 was investigated. All experiments were carried out with 0.5 mg/mL of [{(bpy)2Ru(dpp)}2RhCl2](PF6)5 in MEM media, and the results are shown in FIG. 11A. This cell line normally replicates once each 24 hours.
The concentration dependence of photoinduced inhibition of cell replication by the supramolecular complex [{(bpy)2Ru(dpp)}2RhCl2]Cl5 is shown in FIG. 11B. […] This is likely due to photoinduced death of the irradiated cells.

For `F[P-](F)(F)(F)(F)F.F[P-](F)(F)(F)(F)F.F[P-](F)(F)(F)(F)F.F[P-](F)(F)(F)(F)F.F[P-](F)(F)(F)(F)F.[Cl-].[Cl-].[Os+2].[Os+2].[Rh+3].c1ccc(-c2ccccn2)nc1.c1ccc(-c2ccccn2)nc1.c1ccc(-c2ccccn2)nc1.c1ccc(-c2ccccn2)nc1.c1ccc(-c2nccnc2-c2ccccn2)nc1.c1ccc(-c2nccnc2-c2ccccn2)nc1` [[{(bpy)2Os(dpp)}2RhCl2](PF6)5, [(2,2′-bipyridine)2Os(2,3-bis(2-pyridyl)pyrazine)RhCl2(2,3-bis(2-pyridyl)pyrazine)Os(2,2′-bipyridine)2](PF6)5], the DNA photocleavage (pUC18 plasmid; photolyzed at >475 nm for 20 minutes, 1:5 metal complex/base pair (FIG. 12A)) was “efficiently cleave DNA”.

For `F[P-](F)(F)(F)(F)F.F[P-](F)(F)(F)(F)F.F[P-](F)(F)(F)(F)F.F[P-](F)(F)(F)(F)F.F[P-](F)(F)(F)(F)F.[Cl-].[Cl-].[Rh+3].[Ru+2].[Ru+2].c1ccc(-c2ccccn2)nc1.c1ccc(-c2ccccn2)nc1.c1ccc(-c2ccccn2)nc1.c1ccc(-c2ccccn2)nc1.c1ccc(-c2nccnc2-c2ccccn2)nc1.c1ccc(-c2nccnc2-c2ccccn2)nc1` [[{(bpy)2Ru(dpp)}2RhCl2](PF6)5], the “DNA cleavage without irradiation” value (pUC18 plasmid; incubated at 37° C. for 2 h, 1:5 metal complex/base pair) was “the plasmid DNA is not cleaved”, the “DNA photocleavage (supercoiled to nicked form)” value (pUC18 plasmid; irradiated λ≧475 nm for 10 min, absence of molecular oxygen, 1:5 metal complex/base pair, 3.5 μM complex, phosphate buffer pH 7) was “conversion of the supercoiled DNA to the nicked form is observed” and the DNA photocleavage (pUC18 plasmid; irradiated λ≧475 nm, presence of molecular oxygen) was “also observed in the presence of molecular oxygen”. The DNA photocleavage (pBluescript plasmid; presence of molecular oxygen) was “also observed in the presence of molecular oxygen”, the “Toxicity to cells in the dark” value (Vero cells; Vero cells, no illumination, 0.5 mg/mL) was “not toxic to cells in the dark” and the “Vero cell replication, complex alone” value (Vero cells; incubated in the dark, without illumination, MEM media (FIG. 11A)) was “did not impact replication”. For the same compound, the “Photoinduced inhibition of Vero cell replication” value (Vero cells; photolysis at λ>475 nm after incubation with 0.5 mg/mL complex in MEM media (FIG. 11A)) was “greatly inhibits cell replication”.

`F[P-](F)(F)(F)(F)F.F[P-](F)(F)(F)(F)F.F[P-](F)(F)(F)(F)F.[Cl-].[Cl-].[Cl-].[Cl-].[Rh+3].[Ru+2].[Ru+2].c1ccc(-c2cccc(-c3ccccn3)n2)nc1.c1ccc(-c2cccc(-c3ccccn3)n2)nc1.c1ccc(-c2nccnc2-c2ccccn2)nc1.c1ccc(-c2nccnc2-c2ccccn2)nc1` [[{(tpy)RuCl(dpp)}2RhCl2](PF6)3, [(2,2′:6′,2″-terpyridine) RuCl(2,3-bis(2-pyridyl)pyrazine)RhCl2(2,3-bis(2-pyridyl)pyrazine)RuCl(2,2′:6′,2″-terpyridine)](PF6)3] was tested, and the DNA photocleavage (pBluescript plasmid; photolyzed at >475 nm for 20 minutes, 1:5 metal complex/base pair (FIG. 12B)) was “efficiently cleave DNA”.

In the case of “[(2,2′:6′,2″-terpyridine)RuCl(2,2′-bipyridimidine)RhCl2(2,2′-bipyridimidine)RuCl(2,2′:6′,2″-terpyridine)](PF6)3 [[{(tpy)RuCl(bpm)}2RhCl2](PF6)3]”, the DNA photocleavage (pUC18 plasmid; photolyzed at >475 nm for 15 minutes, 1:5 metal complex/base pair (FIG. 12C)) is reported as “efficiently cleave DNA”.
